# Source: patent US20210322545A1 (priority 2016, published 2021)
# pEC50: −log10 of the molar value. Where “and” joins values, the source holds several entries; their conditions need not be identical. Equal values may be shown once. Entries after “also recorded” stand apart in the source; their conditions may differ. Read-outs that look alike come from different tables or passages of the source.
# Key:
# [1] = tested on: intracranial CT-2A tumors; conditions: mouse, in vivo
# [2] = mouse, in vivo
# [3] = tested on: CT-26 tumors; conditions: mouse, in vivo, sc
# [4] = tested on: glioma cells; assay type: cell-based
# [5] = tested on: cancer cells; assay type: cell-based
# [6] = tested on: HT-29 tumors; conditions: mouse, in vivo
# [7] = tested on: EMT6, 4T1 or CT-2A cells; conditions: mouse, in vivo
# [8] = tested on: glioblastoma cells; assay type: cell-based
# [9] = tested on: intracranial CT-2A tumors; conditions: mouse, in vivo; remark: listed apart in the source
# [10] = tested on: MM cells; assay type: cell-based
# [11] = tested on: CD8 T-cells; assay type: cell-based, mouse
# [12] = tested on: EMT6 cells; assay: cells; assay type: cell-based; conditions: Mus musculus, EMT6, read-out: EC50 of SMC therapy
# [13] = tested on: cIAP1/2 and XIAP
# Text: Cells were scraped, collected by centrifugation and lysed in RIPA lysis buffer containing a protease inhibitor cocktail (Roche, Laval, Canada). Equal amounts of soluble protein were separated on polyacrylamide gels followed by transfer to nitrocellulose membranes. […] Our rabbit anti-rat IAP1 and IAP3 polyclonal antibodies were used to detect human and mouse cIAP1/2 and XIAP, respectively. AlexaFluor680 (Invitrogen) or IRDye800 (Li-Cor, Lincoln, USA) were used to detect the primary antibodies, and infrared fluorescent signals were detected using the Odyssey Infrared Imaging System (Li-Cor).
# Cells were scraped, collected by centrifugation, and lysed in RIPA lysis buffer containing a protease inhibitor cocktail (Roche). Tumors were excised, minced, and lysed as above. Equal amounts of soluble protein were separated on polyacrylamide gels followed by transfer to nitrocellulose membranes. […] Rabbit anti-rat IAP1 and IAP3 polyclonal antibodies were used to detect human and mouse cIAP1/2 and XIAP, respectively (1:5000; Cyclex Co.). AlexaFluor680 (Invitrogen) or IRDye800 (Li-Cor) (1:2500) were used to detect the primary antibodies, and infrared fluorescent signals were detected using the Odyssey Infrared Imaging System (Li-Cor).
# [14] = tested on: intracranial GL261 tumors; conditions: mouse, in vivo
# [15] = tested on: EMT6 mammary tumors; assay type: in vivo, mouse
# [16] = tested on: U266, MM1R and MM1S cells
# [17] = tested on: VSVΔ51; assay type: cell-based
# [18] = tested on: MPC-11 Fluc cells; conditions: mouse, in vivo
# [19] = tested on: SNB75 cells; assay type: cell-based, human
# [20] = tested on: serum cytokines; conditions: mouse, in vivo
# Experimental: The detection of serum proteins following combinatorial SMC and anti-PD-1 treatment was analyzed by a flow cytometry-based multiplex kit (LEGENDplex inflammation panel from Biolegend).
# [21] = tested on: SNB75 cells; assay: cells; assay type: cell-based; conditions: Homo sapiens, SNB-75, read-out: EC50 of SMC therapy
# [22] = tested on: EMT6 cells; assay type: cell-based, mouse
# [23] = tested on: U266, MM1R and MM1S cells; assay type: cell-based, human
# [24] = tested on: CT-2A and K1580 glioblastoma cells; assay type: cell-based, mouse
# [25] = tested on: TNF-α; conditions: mouse, in vivo, ip
# [26] = EMT6 tumors, 50 mg/kg LCL161 oral gavage
molecule,measurement,setting,value
CC[C@H](NC(=O)[C@H](C)NC)C(=O)N1C[C@@H](O)C[C@H]1Cc1c(-c2[nH]c3cc(F)ccc3c2C[C@@H]2C[C@H](O)CN2C(=O)[C@H](CC)NC(=O)[C@H](C)NC)[nH]c2cc(F)ccc12 [Birinapant],survival,[1]; ip,significant increase in survival
CN[C@@H](C)C(=O)N[C@H](C(=O)N1CCC[C@H]1c1nc(C(=O)c2ccc(F)cc2)cs1)C1CCCCC1 [LCL161],tolerability,[2],well tolerated
same,tolerability of combination therapies,[2],well tolerated
same,body weight after a single treatment,"[2]; po, 50 mg/kg",minimal transient weight loss
same,"tumor growth and survival, single agent",[3],modest decrease of the tumor growth rate and a slight extension of survival
same,surface expression of PD-L1 and MHC I markers,[4],no significant impact
same,cell death by UV-inactivated conditioned media of VSVΔ51-infected cells,[5],induced cell death only when the cells were co-treated with an SMC
same,"effect on HT-29 tumors, monotherapy",[6],neither monotherapy had any effect
same,tumor engraftment on rechallenge of cured mice,[7],completely resistant to tumor engraftment
same,cure rate,[1],50%
same,cure rate upon depletion of CD4+ T-cells,[1],100%
same,cure rate upon depletion of CD8+ T-cells,[1],completely abrogated
same,durable cures,[1],86% and 55%
same,effect of IFNAR1 blocking antibody on SMC + anti-PD1 survival synergy,[1],negated the synergistic effects
same,effect of anti-IFN-γ antibody on SMC + ICI synergy,[1],partially inhibited the synergistic effects
same,effect of systemic TNF-α blockade on SMC + ICI efficacy,[1],almost a complete reversal of the efficacy
same,neurotoxicity,[1],did not result in any overt neurotoxicity
same,physical or behavioral defects in long-term survivors,[1],no overt physical or behavioral defects
same,expected survival rate,[1]; po,86%
same,death of cultured and primary glioblastoma cell lines,[8],killed
same,sensitivity of CT-2A cells to combined SMC and recombinant IFN-α,[8],partially sensitive
same,CD4+ and CD25+ T-cells (Treg) in tumors,[9],significant decrease
same,CD4+ cells expressing IFN-γ,[9],decrease in the proportion of CD4+ cells expressing IFN-γ
same,CD8+ T-cells expressing PD-1 in tumors,[9],significant increase in CD8+ T-cells expressing PD-1
same,CD3+ and CD3+ CD8+ cells expressing PD-1,"[9]; po, 75 mg/kg",robust increase
same,cIAP1 and cIAP2 protein,[10],rapid degradation of cIAP1 and cIAP2
same,CD8+ T-cells expressing TNF-α,[11],significantly increased the proportion of CD8+ T-cells expressing TNF-α
same,pEC50,[12],< 5.60
same,duration of cIAP1/2 knockdown in tumors,[13]; [26],at least 24 hrs
same,"duration of cIAP1/2 knockdown in tumors, in some cases (up to)",[13]; [26],48 to 72 h
same,IAP levels in intracranial CT-2A tumors,"[13]; direct intracranial injection, 10 μL of a 100 μM solution",potent down-regulation of both cIAP1/2 and XIAP proteins
same,IAP levels in intracranial CT-2A tumors,"[13]; systemic SMC, several hours after drug administration, indicative of crossing the BBB",degradation of cIAP1/2 proteins
same,durable cure rate,[14],33%
same,"tumor response, oral SMC + BCG",[15]; BCG intratumorally or intraperitoneally,significant tumor regression
same,durable cure rate,"[15]; mouse, in vivo",75%
same,durable cures of treated mice,"[15]; mouse, in vivo",88%
same,"tumor growth and survival, single agent","[15]; mouse, in vivo",a decrease in the rate of tumor growth and a modest extension in survival; also recorded: slightly delayed EMT6 tumor growth rates and slightly extended the survival
same,cure rate,"[15]; mouse, in vivo, ip",57%
same,durable cures of treated mice,"[15]; mouse, in vivo, ip",60%
same,PD-L1 expression,[16],Comparable upregulation
same,effect of SMC treatment on growth kinetics of VSVΔ51,[17],does not affect the growth kinetics
same,"tolerability, combination treatment",[18],not well tolerated
same,tumour burden (luminescence signal),[18],almost no tumour burden
same,"tumour burden, combination treatment",[18],did not reduce tumour burden as effectively as VSVΔ51 alone
same,effect of SMC on induction of TRAIL and TNFα by IFNβ,[19],potentiated the induction
same,"serum IFN-, IL-1-α, IL-1β, IL-17, IFN-γ, IL-27, GM-CSF",[20],statistically significant increases
same,pEC50,[21],< 5.60
CC(C)Cn1cnc2c(N)nc3ccccc3c21 [imiquimod],bystander death of SMC treated EMT6 cells,[22],required splenocytes
IFNα,neurotoxicity,[1],did not result in any overt neurotoxicity
same,physical or behavioral defects in long-term survivors,[1],no overt physical or behavioral defects
same,killing of MM cells with SMC,[23],very strong synergistic killing
same,"tumor growth and survival, single agent","[15]; mouse, in vivo",no effect on EMT6 tumor growth or overall survival
poly(I:C),toxicity of intracranial administration,[2],without overt toxicities
same,physical or behavioral defects in long-term survivors,[1],no overt physical or behavioral defects
same,cell death by brain lysates of treated mice in the presence of SMCs,[24],enhanced cell death
same,TNFα levels from the brain,[25],marked up-regulation
same,bystander death of SMC treated EMT6 cells,[22],led to EMT6 cell death directly
same,"tumor growth and survival, single agent","[15]; mouse, in vivo",no bearing on tumor growth
